Measured values published in the supplement of paper PMC10307832.

How the values were obtained:
Test in all cases: relative viability (nuclei count vs DMSO), 5 days (fraction); higher = more cells survive
IMD-0354 + Alpelisib = compound: O=C(Nc1cc(C(F)(F)F)cc(C(F)(F)F)c1)c1cc(Cl)ccc1O [IMD-0354] + Cc1nc(NC(=O)N2CCC[C@H]2C(N)=O)sc1-c1ccnc(C(C)(C)C(F)(F)F)c1 [Alpelisib] (partner 2 µM)
How it was run: (§1)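 Relative viability was taken as the ratio of nuclei in treated wells to nuclei in vehicle wells. Lung cancer cell lines in 1536-well plates received compounds by pin tool one day after seeding, either one drug alone or a fixed anchor-drug dose plus five library-drug doses (not always all listed) in √10 steps. Nuclei were counted on 4× images after 5 days of treatment, and values are medians of duplicate plates.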

CX-5461 + Phenformin = compound: Cc1cnc(CNC(=O)c2c(=O)c3ccc(N4CCCN(C)CC4)nc3n3c2sc2ccccc23)cn1 [CX-5461] + N=C(N)NC(=N)NCCc1ccccc1 [Phenformin] (partner 250 µM)
How it was run: as §1

CX-5461 + Navitoclax = compound: Cc1cnc(CNC(=O)c2c(=O)c3ccc(N4CCCN(C)CC4)nc3n3c2sc2ccccc23)cn1 [CX-5461] + CC1(C)CCC(c2ccc(Cl)cc2)=C(CN2CCN(c3ccc(C(=O)NS(=O)(=O)c4ccc(N[C@H](CCN5CCOCC5)CSc5ccccc5)c(S(=O)(=O)C(F)(F)F)c4)cc3)CC2)C1 [Navitoclax] (partner 0.5 µM)
How it was run: as §1

IMD-0354 + Luminespib = compound: O=C(Nc1cc(C(F)(F)F)cc(C(F)(F)F)c1)c1cc(Cl)ccc1O [IMD-0354] + CCNC(=O)c1noc(-c2cc(C(C)C)c(O)cc2O)c1-c1ccc(CN2CCOCC2)cc1 [Luminespib] (partner 0.01 µM)
How it was run: as §1

Cell Line | relative viability (IMD-0354 + Alpelisib; first compound 0.04 µM) | relative viability (IMD-0354 + Alpelisib; first compound 0.1265 µM) | relative viability (IMD-0354 + Alpelisib; first compound 0.4 µM) | relative viability (IMD-0354 + Alpelisib; first compound 1.265 µM) | relative viability (IMD-0354 + Alpelisib; first compound 4 µM) | relative viability (CX-5461 + Phenformin; first compound 0.01 µM) | relative viability (CX-5461 + Phenformin; first compound 0.03162 µM) | relative viability (CX-5461 + Phenformin; first compound 0.1 µM) | relative viability (CX-5461 + Phenformin; first compound 0.3162 µM) | relative viability (CX-5461 + Phenformin; first compound 1 µM) | relative viability (CX-5461 + Navitoclax; first compound 0.01 µM) | relative viability (CX-5461 + Navitoclax; first compound 0.03162 µM) | relative viability (CX-5461 + Navitoclax; first compound 0.1 µM) | relative viability (CX-5461 + Navitoclax; first compound 0.3162 µM) | relative viability (CX-5461 + Navitoclax; first compound 1 µM) | relative viability (IMD-0354 + Luminespib; first compound 0.04 µM) | relative viability (IMD-0354 + Luminespib; first compound 0.1265 µM) | relative viability (IMD-0354 + Luminespib; first compound 0.4 µM) | relative viability (IMD-0354 + Luminespib; first compound 1.265 µM) | relative viability (IMD-0354 + Luminespib; first compound 4 µM)
HCC-78 | 0.366 | 0.345 | 0.121 | 0.231 | 0.192 | 0.729 | 0.66 | 0.764 | 0.783 | 0.55 | 0.984 | 0.839 | 0.724 | 0.543 | 0.769 | – | – | – | – | –
HCC-366 | 0.509 | 0.727 | 0.148 | 0.373 | 0.0309 | 0.657 | 0.657 | 0.627 | 0.604 | 0.253 | 1.04 | 1.06 | 1.16 | 1.1 | 1.11 | – | – | – | – | –
HCC-827 | 0.888 | 0.978 | 0.752 | 0.574 | 0.216 | 0.406 | 0.426 | 0.444 | 0.406 | 0.359 | 1.07 | 1.01 | 1.02 | 1.02 | 0.975 | 0.686 | 0.589 | 0.589 | 0.235 | 0.129
HOP-62 | 0.839 | 1.2 | 0.896 | 0.837 | 0.178 | 0.743 | 0.713 | 0.742 | 0.572 | 0.472 | 0.908 | 1.16 | 1.21 | – | 1.02 | 0.998 | 0.864 | 0.53 | 0.509 | 0.166
IA-LM | 0.806 | 0.617 | 0.634 | 0.106 | 0.178 | – | – | – | – | – | 0.941 | 0.993 | 0.724 | 0.769 | 0.272 | – | – | – | – | –
LC-2-ad | 0.979 | 0.835 | 0.397 | 0.106 | 0.115 | 0.618 | 0.627 | 0.564 | 0.398 | 0.442 | 0.449 | 0.533 | 0.434 | 0.553 | 0.362 | 1.01 | 0.87 | 0.674 | 0.312 | 0.226
LCLC-97TM1 | – | 0.272 | 0.245 | 0.207 | 0.113 | 0.397 | 0.479 | 0.415 | – | 0.384 | 0.405 | 0.523 | 0.325 | – | 0.467 | 0.735 | 0.705 | 0.529 | 0.251 | 0.148
LCLC-103H | 0.952 | 0.998 | 0.839 | 0.815 | 0.397 | 0.377 | 0.349 | 0.326 | 0.364 | 0.297 | – | – | – | – | – | 1.1 | 0.894 | 0.744 | 0.432 | 0.222
LK-2 | 1.77 | 0.711 | 0.647 | 0.611 | 0.372 | 0.611 | 0.443 | 0.386 | – | 0.111 | – | 0.984 | 0.939 | 0.319 | 0.904 | 0.195 | 0.194 | 0.184 | 0.195 | 0.167
LOU-NH91 | 0.755 | 0.729 | 0.541 | 0.244 | 0.231 | 0.801 | 0.7 | 0.697 | – | 0.594 | 0.7 | 0.694 | 0.735 | 0.472 | 0.575 | 0.348 | 0.334 | 0.32 | 0.176 | 0.213
LU99A | 0.517 | 0.493 | 0.345 | 0.247 | 0.195 | 0.911 | 0.855 | 0.821 | 0.528 | 0.21 | 0.764 | 0.938 | 0.741 | 0.676 | 0.898 | 0.214 | 0.264 | 0.221 | 0.196 | 0.201
NCI-H358 | 0.944 | 0.746 | 0.429 | 0.223 | 0.306 | 0.349 | 0.347 | 0.316 | 0.236 | 0.148 | – | – | – | – | – | 0.292 | 0.286 | 0.305 | 0.322 | 0.167
NCI-H522 | – | – | – | – | – | 0.653 | 0.614 | 0.654 | – | 0.593 | – | – | – | – | – | 1.03 | 0.908 | 1.2 | 0.813 | 0.505
NCI-H650 | 1.03 | 1.07 | 0.943 | 0.615 | 0.215 | 0.486 | 0.441 | 0.429 | 0.487 | 0.386 | – | – | – | – | – | 0.791 | 0.873 | 0.59 | 0.381 | 0.167
NCI-H661 | 0.838 | 0.772 | 0.401 | 0.345 | 0.248 | 0.285 | 0.286 | 0.316 | 0.259 | 0.23 | – | – | – | – | – | 0.971 | 0.946 | 0.364 | 0.254 | 0.217
NCI-H1299 | 1.01 | 1.02 | 0.709 | 0.276 | 0.194 | – | – | – | – | – | 1.1 | 1.06 | 1.04 | 1.04 | 1.05 | – | – | – | – | –
NCI-H1563 | 0.875 | 0.889 | 0.886 | 0.726 | 0.399 | 0.663 | 0.677 | 0.531 | 0.627 | 0.457 | – | – | – | – | – | 0.232 | 0.57 | 0.5 | 0.492 | 0.206
NCI-H1623 | – | – | – | – | – | 0.556 | 0.588 | 0.556 | 0.616 | 0.593 | – | – | – | – | – | 0.405 | 0.369 | 0.461 | 0.332 | 0.287
NCI-H1650 | – | – | – | – | – | 0.409 | 0.275 | 0.191 | 0.33 | 0.148 | 1.29 | 1.02 | – | 1.23 | 0.2 | 0.215 | 0.208 | 0.171 | 0.196 | 0.176
NCI-H1703 | 0.312 | 0.269 | 0.282 | 0.179 | 0.121 | – | – | – | – | – | 1.22 | 1.28 | 0.932 | 1.13 | 0.313 | – | – | – | – | –
NCI-H2342 | – | – | – | – | – | 0.645 | 0.53 | 0.535 | 0.675 | 0.586 | – | – | – | – | – | 0.771 | 0.746 | 0.629 | 0.699 | 0.388
SW 900 | – | – | – | – | – | 0.656 | 0.641 | 0.743 | 0.532 | 0.209 | – | – | – | – | – | 0.187 | 0.162 | 0.178 | 0.143 | 0.161
